Source: US20080051429A1, “USE OF 4-AMINO-PIPERIDINES FOR TREATING SLEEP DISORDERS” (priority 2006, published 2008)

What was measured:
Assay in all cases: R-SAT broad profiling
Assay type in all cases: cell-based
5HT7A = target: T1, 5HT7A (Homo sapiens, UniProt P34969); conditions: read-out: pEC50 or pIC50 (converted)
T1 construct: expressed in transfected cells; host or cells: NIH3T3
Procedure: (§1) The functional receptor assay, Receptor Selection and Amplification Technology (R-SAT), was used (with minor modifications from that previously described U.S. Pat. No. 5,707,798) to screen compounds for efficacy at the 5-HT2A receptor. Briefly, NIH3T3 cells were grown in 96 well tissue culture plates to 70-80% confluence. Cells were transfected for 12-16 hours with plasmid DNAs using superfect (Qiagen Inc.) as per manufacture's protocols. R-SAT's were generally performed with 50 ng/well of receptor and 20 ng/well of Beta-galactosidase plasmid DNA. All receptor and G-protein constructs used were in the pSI mammalian expression vector (Promega Inc) as described in U.S. Pat. No. 5,707,798. The 5HT2A receptor gene was amplified by nested PCR from brain cDNA using the oligodeoxynucleotides based on the published sequence (see Saltzman et. al. Biochem. Biophys. Res. Comm. 181:1469-78 (1991)). Large-scale transfections, cells were transfected for 12-16 hours, then trypsinized and frozen in DMSO. Frozen cells were later thawed, plated at 10,000-40,000 cells per well of a 96 well plate that contained drug. With both methods, cells were then grown in a humidified atmosphere with 5% ambient CO2 for five days. Media was then removed from the plates and marker gene activity was measured by the addition of the beta-galactosidase substrate ONPG (in PBS with 5% NP-40). The resulting colorimetric reaction was measured in a spectrophotometric plate reader (Titertek Inc.)at […]. All data were analyzed using the computer program XLFit (IDBSm). Efficacy is the percent maximal repression compared to repression by a control compound (ritanserin in the case of 5HT2A). pIC50 is the negative of the log(IC50), where IC50 is the calculated concentration in Molar that produces 50% maximal repression.
(§2) The R-SAT assay (described above in example 289) was used to investigate the selectivity of 4-(4-Fluoro-benzyl)-3-(4-isobutoxy-benzyl)-8-methyl-1-oxa-3,8-diaza-spiro[4.5]decan-2-one.

D3 = target: T2, D3 (Homo sapiens, UniProt P35462); conditions: read-out: pEC50 or pIC50 (converted)
T2 construct: expressed in transfected cells; host or cells: NIH3T3
Procedure: as §1, §2

alpha 2A = target: T3, alpha 2A (Homo sapiens, UniProt P08913); conditions: agonist; read-out: pEC50 or pIC50 (converted)
T3 construct: expressed in transfected cells; host or cells: NIH3T3
T3 sequence (P08913 1-465): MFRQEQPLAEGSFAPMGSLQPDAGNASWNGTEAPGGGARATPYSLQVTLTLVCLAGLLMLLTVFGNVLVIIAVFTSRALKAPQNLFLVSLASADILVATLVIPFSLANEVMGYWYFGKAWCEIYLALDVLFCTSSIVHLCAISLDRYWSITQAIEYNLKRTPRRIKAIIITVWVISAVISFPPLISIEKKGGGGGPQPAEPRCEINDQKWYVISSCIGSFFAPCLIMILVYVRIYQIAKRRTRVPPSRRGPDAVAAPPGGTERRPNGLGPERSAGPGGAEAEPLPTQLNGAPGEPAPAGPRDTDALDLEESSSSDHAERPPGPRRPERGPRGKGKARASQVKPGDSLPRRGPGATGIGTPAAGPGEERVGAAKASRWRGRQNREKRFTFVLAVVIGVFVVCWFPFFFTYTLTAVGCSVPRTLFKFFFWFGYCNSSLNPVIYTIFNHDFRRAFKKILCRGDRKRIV
Procedure: as §1, §2

m1 = target: T4, m1 (Homo sapiens, UniProt P11229); conditions: agonist; read-out: pEC50 or pIC50 (converted)
T4 construct: expressed in transfected cells; host or cells: NIH3T3
T4 sequence (P11229 1-460): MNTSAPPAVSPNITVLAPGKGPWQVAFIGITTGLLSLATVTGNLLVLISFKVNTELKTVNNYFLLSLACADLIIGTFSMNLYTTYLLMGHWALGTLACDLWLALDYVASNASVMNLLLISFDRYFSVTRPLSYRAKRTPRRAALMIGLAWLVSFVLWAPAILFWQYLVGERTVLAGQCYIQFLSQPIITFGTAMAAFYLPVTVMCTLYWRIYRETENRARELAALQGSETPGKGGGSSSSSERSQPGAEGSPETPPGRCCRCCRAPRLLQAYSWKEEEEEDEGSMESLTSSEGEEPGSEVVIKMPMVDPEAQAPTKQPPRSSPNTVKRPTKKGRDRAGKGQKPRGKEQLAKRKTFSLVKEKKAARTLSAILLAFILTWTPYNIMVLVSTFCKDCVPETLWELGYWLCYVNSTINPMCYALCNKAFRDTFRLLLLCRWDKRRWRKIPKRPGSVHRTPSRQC
Procedure: as §1, §2

m2 = target: T5, m2 (Homo sapiens, UniProt P08172); conditions: agonist; read-out: pEC50 or pIC50 (converted)
T5 construct: expressed in transfected cells; host or cells: NIH3T3
T5 sequence (P08172 1-466): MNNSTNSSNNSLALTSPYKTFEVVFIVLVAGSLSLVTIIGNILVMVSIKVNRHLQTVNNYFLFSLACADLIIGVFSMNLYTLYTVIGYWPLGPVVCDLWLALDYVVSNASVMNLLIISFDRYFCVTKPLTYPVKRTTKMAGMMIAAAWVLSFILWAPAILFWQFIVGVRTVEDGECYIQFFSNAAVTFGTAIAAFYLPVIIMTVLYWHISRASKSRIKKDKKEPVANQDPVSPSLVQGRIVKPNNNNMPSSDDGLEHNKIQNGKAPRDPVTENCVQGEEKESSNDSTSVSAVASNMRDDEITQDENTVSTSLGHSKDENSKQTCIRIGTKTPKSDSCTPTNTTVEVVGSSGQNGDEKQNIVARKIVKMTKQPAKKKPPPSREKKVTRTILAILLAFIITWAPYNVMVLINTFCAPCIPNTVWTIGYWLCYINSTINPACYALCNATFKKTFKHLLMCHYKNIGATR
Procedure: as §1, §2

m5 = target: T6, m5 (Homo sapiens, UniProt P08912); conditions: agonist; read-out: pEC50 or pIC50 (converted)
T6 construct: expressed in transfected cells; host or cells: NIH3T3
T6 sequence (P08912 1-532): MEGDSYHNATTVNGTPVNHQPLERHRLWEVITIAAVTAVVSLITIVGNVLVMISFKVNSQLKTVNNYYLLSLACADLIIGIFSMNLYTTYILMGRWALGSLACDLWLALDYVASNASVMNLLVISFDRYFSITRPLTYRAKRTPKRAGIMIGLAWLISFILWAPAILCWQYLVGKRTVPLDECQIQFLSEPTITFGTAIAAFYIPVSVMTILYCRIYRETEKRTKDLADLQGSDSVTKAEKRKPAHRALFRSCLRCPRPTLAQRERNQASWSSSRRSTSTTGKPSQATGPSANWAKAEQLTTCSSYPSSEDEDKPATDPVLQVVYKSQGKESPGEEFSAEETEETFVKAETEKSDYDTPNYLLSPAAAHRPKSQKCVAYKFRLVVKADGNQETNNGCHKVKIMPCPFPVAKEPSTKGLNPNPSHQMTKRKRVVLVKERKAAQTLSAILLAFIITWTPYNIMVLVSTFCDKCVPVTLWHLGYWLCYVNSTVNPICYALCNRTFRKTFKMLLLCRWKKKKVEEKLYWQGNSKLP
Procedure: as §1, §2

T1 sequence (P34969 1-445 isoform P34969-2): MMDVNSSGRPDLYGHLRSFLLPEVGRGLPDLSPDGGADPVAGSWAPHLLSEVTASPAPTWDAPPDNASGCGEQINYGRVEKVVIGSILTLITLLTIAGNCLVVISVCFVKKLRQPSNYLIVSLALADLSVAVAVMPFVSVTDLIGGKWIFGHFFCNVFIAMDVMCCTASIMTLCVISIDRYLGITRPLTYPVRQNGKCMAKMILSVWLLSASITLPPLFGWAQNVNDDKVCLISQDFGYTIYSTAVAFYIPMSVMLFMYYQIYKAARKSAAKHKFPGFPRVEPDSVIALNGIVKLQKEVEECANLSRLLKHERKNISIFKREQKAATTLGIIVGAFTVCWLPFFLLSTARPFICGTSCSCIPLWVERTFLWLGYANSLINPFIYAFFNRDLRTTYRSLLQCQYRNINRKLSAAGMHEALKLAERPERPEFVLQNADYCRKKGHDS
T2 sequence (P35462 whole entry): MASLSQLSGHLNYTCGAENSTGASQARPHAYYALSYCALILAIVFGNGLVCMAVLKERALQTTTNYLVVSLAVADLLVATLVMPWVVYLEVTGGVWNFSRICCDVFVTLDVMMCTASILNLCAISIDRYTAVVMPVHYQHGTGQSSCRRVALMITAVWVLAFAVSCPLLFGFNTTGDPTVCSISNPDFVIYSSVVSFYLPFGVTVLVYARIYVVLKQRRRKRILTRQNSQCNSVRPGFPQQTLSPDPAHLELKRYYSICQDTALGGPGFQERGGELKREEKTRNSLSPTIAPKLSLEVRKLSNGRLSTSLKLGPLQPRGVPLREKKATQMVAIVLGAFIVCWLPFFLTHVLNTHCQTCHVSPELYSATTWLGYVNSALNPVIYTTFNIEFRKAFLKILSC

CC(C)COc1ccc(CN2C(=O)OC3(CCN(C)CC3)C2Cc2ccc(F)cc2)cc1.Cl (racemic) [Example 69NLS75, 4-(4-Fluorobenzyl)-3-(4-isobutoxybenzyl)-8-methyl-1-oxa-3,8-diazaspiro[4.5]decan-2-one, hydrochloride]
> 3.16 µM: EC50 (5HT7A; agonist) | IC50 (5HT7A; inverse) | EC50 (D3; agonist) | IC50 (D3; antagonist) | EC50 (alpha 2A) | EC50 (m1) | EC50 (m2) | EC50 (m5)
